This note sets out measurements from ChEMBL document CHEMBL6153100, “Controlins I-X, Resin Glycosides from the Seeds of Convolvulus tricolor and Their Biological Activities” (J Nat Prod, 2025).

Calls of active or inactive are those of the source. The rule behind the calls is not given here.

One test deals with BV-2. The test is described as follows: Antineuroinflammatory activity in LPS-induced mouse BV-2 microglial cells assessed as inhibition of nitric oxide production incubated for 24 hrs by Griess reagent assay. The format is functional, cell-based. Conditions: BV-2, 24 h. In general terms: Griess reagent forms a coloured azo dye with nitrite.
A further test concerns Caenorhabditis elegans. The test is described as follows: Anti-alzheimer activity in transgenic Caenorhabditis elegans UM0001 expressing Amyloid-beta/Tau assessed as decrease in dyskinesia measured for 30 mins by basal slowing response assay. Format: functional, organism-based. Conditions: dose 1-4 µM.
Another test deals with PC-12. The test is described as follows: Neuroprotective activity in H2O2-induced oxidative damage in rat PC12 cells assessed as increase in cell survival rate at 1 to 10 uM pre-incubated for 2 hrs followed by H2O2 addition and measured after 24 hrs by MTT assay. Format: functional, cell-based. To be noted: dose 1-10 µM, time 26.0 hrs. A general note: Tetrazolium assays rely on reduction of a dye to a coloured formazan, in cell work by metabolically active cells.

By IC50 is commonly meant the point on the concentration scale where inhibition reaches its midpoint. Turning to `C/C=C(\C)C(=O)OC[C@H]1O[C@@H](O[C@H]2[C@H](O)[C@@H](COC(=O)[C@H](C)[C@@H](C)O)O[C@@H](O[C@H]3[C@H](O[C@@H](CCCC)CCCCCCCCCCC(=O)OC)O[C@H](CO[C@@H]4O[C@H](C)[C@H](O)[C@H](O)[C@H]4O)[C@@H](O)[C@@H]3O)[C@@H]2O[C@@H]2O[C@@H](C)[C@H](OC(=O)[C@H](C)[C@@H](C)OC(=O)[C@H](C)[C@@H](C)O[C@@H]3O[C@H](C)[C@@H](O)[C@H](O)[C@H]3O)[C@@H](O[C@@H]3O[C@H](CO)[C@@H](O)[C@H](O)[C@H]3O)[C@H]2O)[C@H](O)[C@@H](O[C@@H]2O[C@H](CO)[C@@H](O)[C@H](O)[C@H]2O)[C@@H]1O`, the concentration for half-maximal inhibition (IC50) in the test with BV-2 is 6.73 µM. For the same compound, the Activity entry in the test on Caenorhabditis elegans is “Dose-dependent-effect”.
`C/C=C(\C)C(=O)OC[C@H]1O[C@@H](O[C@H]2[C@H](O)[C@@H](COC(=O)[C@H](C)[C@@H](C)O)O[C@@H](O[C@H]3[C@H](O[C@@H](CCCC)CCCCCCCCCCC(=O)OC)O[C@H](CO[C@@H]4O[C@@H](C)[C@H](O)[C@@H](O)[C@H]4O)[C@@H](O)[C@@H]3O)[C@@H]2O[C@@H]2O[C@@H](C)[C@H](OC(=O)[C@H](C)[C@@H](C)OC(=O)[C@H](C)[C@@H](C)O[C@@H]3O[C@H](C)[C@@H](O)[C@H](O)[C@H]3O)[C@@H](O[C@@H]3O[C@H](CO)[C@@H](O)[C@H](O)[C@H]3O)[C@H]2O)[C@H](O)[C@@H](O[C@@H]2O[C@H](CO)[C@@H](O)[C@H](O)[C@H]2O)[C@@H]1O`: in the test on PC-12, the outcome was Active. The Activity entry in the test on Caenorhabditis elegans was “Dose-dependent-effect”.
As for `CCCC[C@@H](CCCCCCCCCCC(=O)C=O)O[C@@H]1O[C@H](CO[C@H]2O[C@H](C)[C@@H](O)[C@@H](O)[C@H]2O)[C@@H](O)[C@H](O)[C@H]1O[C@@H]1O[C@H](CO)[C@@H](O)[C@H](O[C@@H]2O[C@H](CO)[C@@H](O)[C@H](O)[C@H]2O)[C@H]1O[C@@H]1O[C@@H](C)[C@H](OC(=O)[C@H](C)[C@@H](C)OC(=O)[C@H](C)[C@@H](C)O[C@@H]2O[C@H](C)[C@@H](O)[C@H](O)[C@H]2O[C@@H]2O[C@H](CO)[C@@H](O)[C@H](O)[C@H]2O)[C@@H](O[C@@H]2O[C@H](CO)[C@@H](O)[C@H](O)[C@H]2O)[C@H]1O`, the outcome with PC-12 was Active.
Take `C/C=C(\C)C(=O)OC[C@H]1O[C@@H](O[C@H]2[C@H](O)[C@@H](CO)O[C@@H](O[C@H]3[C@H](O[C@@H](CCCC)CCCCCCCCCCC(=O)OC)O[C@H](CO[C@@H]4O[C@H](C)[C@H](O)[C@H](O)[C@H]4O)[C@@H](O)[C@@H]3O)[C@@H]2O[C@@H]2O[C@@H](C)[C@H](OC(=O)[C@H](C)[C@@H](C)OC(=O)[C@H](C)[C@@H](C)O[C@@H]3O[C@H](C)[C@@H](O)[C@H](O)[C@H]3O)[C@@H](O[C@@H]3O[C@H](CO)[C@@H](O)[C@H](O)[C@H]3O)[C@H]2O)[C@H](O)[C@@H](O)[C@@H]1O`: the 50% inhibitory concentration (IC50) with BV-2 was 9.7 µM.
Turning to `C/C=C(\C)C(=O)OC[C@H]1O[C@@H](O[C@H]2[C@H](O)[C@@H](CO)O[C@@H](O[C@H]3[C@H](O[C@@H](CCCC)CCCCCCCCCCC(=O)OC)O[C@H](CO[C@@H]4O[C@H](C)[C@H](O)[C@H](O)[C@H]4O)[C@@H](O)[C@@H]3O)[C@@H]2O[C@@H]2O[C@@H](C)[C@H](OC(=O)[C@H](C)[C@@H](C)OC(=O)[C@H](C)[C@@H](C)O[C@@H]3O[C@H](C)[C@@H](O)[C@H](O)[C@H]3O)[C@@H](O[C@@H]3O[C@H](CO)[C@@H](O)[C@H](O)[C@H]3O)[C@H]2O)[C@H](O)[C@@H](O[C@@H]2O[C@H](CO)[C@@H](O)[C@H](O)[C@H]2O)[C@@H]1O`, in the test with BV-2, the IC50 turned out to be 19.1 µM. Moreover, the outcome with PC-12 was Active.
